≈ marks a conversion by molar mass, not a printed value.
Experiments:
Experiment in all cases: Anti-mycotic action in vitro (MIC, serial dilution test)
Format in all cases: cell-based
[1] = system: Trichophyton mentagrophytes; conditions: 28° C, 24 to 96 hours, Sabouraud's test medium (Dermatophytes), dilution series 100-40-20-10-4-1, read-out: Minimal inhibitory concentration (MIC), Trichophyton mentagrophytes
Description: (§1) The Table summarises the anti-mycotic actions in vitro of several preparations towards several species of fungi:
(§2) The MIC determination was carried out in a serial dilution test, in the dilution series 100-40-20-10-4-1 γ/ml of substrate. The following were used as nutrient substrates:
(§3) a. for Dermatophytes: Sabouraud's test medium
(§4) The incubation temperature was 28° C, and the incubation time was 24 to 96 hours.

Microsporon felineum = conditions: 28° C, 24 to 96 hours; Sabouraud's test medium (Dermatophytes); dilution series 100-40-20-10-4-1; read-out: Minimal inhibitory concentration (MIC), Microsporon felineum
Description: as §1, §2, §3, §4

Candida albicans = conditions: 28° C, 24 to 96 hours, meat water-glucose-bouillon (yeasts), dilution series 100-40-20-10-4-1, read-out: Minimal inhibitory concentration (MIC), Candida albicans
Description: as §1, §2
b. for yeasts: meat water -- glucose -- bouillon.
as §4

Penicillium commune = conditions: 28° C, 24 to 96 hours, dilution series 100-40-20-10-4-1, read-out: Minimal inhibitory concentration (MIC), Penicillium commune
Description: as §1, §2, §4

Aspergillus niger = conditions: 28° C, 24 to 96 hours, dilution series 100-40-20-10-4-1, read-out: Minimal inhibitory concentration (MIC), Aspergillus niger
Description: as §1, §2, §4

| MIC [1] | MIC (Microsporon felineum) | MIC (Candida albicans) | MIC (Penicillium commune) | MIC (Aspergillus niger) | Structure (SMILES) |
| --- | --- | --- | --- | --- | --- |
| 4 µg/mL (≈ 12.8 µM) | 40 µg/mL (≈ 128 µM) | 40 µg/mL (≈ 128 µM) | 100 µg/mL (≈ 320 µM) | 10 µg/mL (≈ 32 µM) | c1ccc(C(c2ccccc2)(c2cncnc2)n2ccnc2)cc1 [Example 1, Diphenyl-pyrimid-5-yl-imidazol-1-yl-methane] |
| 4 µg/mL (≈ 12.8 µM) | 10 µg/mL (≈ 32 µM) | 40 µg/mL (≈ 128 µM) | 40 µg/mL (≈ 128 µM) | 10 µg/mL (≈ 32 µM) | c1ccc(C(c2ccccc2)(c2cnccn2)n2ccnc2)cc1 [Example 2, Diphenyl-pyrazyl-imidazol-1-yl-methane] |
| < 1 µg/mL | 4 µg/mL (≈ 12.1 µM) | 4 µg/mL (≈ 12.1 µM) | 4 µg/mL (≈ 12.1 µM) | 4 µg/mL (≈ 12.1 µM) | Fc1ccc(C(c2ccccc2)(c2cnccn2)n2ccnc2)cc1 (stereo not drawn) [Example 3, 4-Fluorophenyl-phenyl-pyrazyl-imidazol-1-yl-methane] |
